This test addresses T1, human TLR7 (Homo sapiens, UniProt Q9NYK1).
T1 sequence (Q9NYK1 27-1049): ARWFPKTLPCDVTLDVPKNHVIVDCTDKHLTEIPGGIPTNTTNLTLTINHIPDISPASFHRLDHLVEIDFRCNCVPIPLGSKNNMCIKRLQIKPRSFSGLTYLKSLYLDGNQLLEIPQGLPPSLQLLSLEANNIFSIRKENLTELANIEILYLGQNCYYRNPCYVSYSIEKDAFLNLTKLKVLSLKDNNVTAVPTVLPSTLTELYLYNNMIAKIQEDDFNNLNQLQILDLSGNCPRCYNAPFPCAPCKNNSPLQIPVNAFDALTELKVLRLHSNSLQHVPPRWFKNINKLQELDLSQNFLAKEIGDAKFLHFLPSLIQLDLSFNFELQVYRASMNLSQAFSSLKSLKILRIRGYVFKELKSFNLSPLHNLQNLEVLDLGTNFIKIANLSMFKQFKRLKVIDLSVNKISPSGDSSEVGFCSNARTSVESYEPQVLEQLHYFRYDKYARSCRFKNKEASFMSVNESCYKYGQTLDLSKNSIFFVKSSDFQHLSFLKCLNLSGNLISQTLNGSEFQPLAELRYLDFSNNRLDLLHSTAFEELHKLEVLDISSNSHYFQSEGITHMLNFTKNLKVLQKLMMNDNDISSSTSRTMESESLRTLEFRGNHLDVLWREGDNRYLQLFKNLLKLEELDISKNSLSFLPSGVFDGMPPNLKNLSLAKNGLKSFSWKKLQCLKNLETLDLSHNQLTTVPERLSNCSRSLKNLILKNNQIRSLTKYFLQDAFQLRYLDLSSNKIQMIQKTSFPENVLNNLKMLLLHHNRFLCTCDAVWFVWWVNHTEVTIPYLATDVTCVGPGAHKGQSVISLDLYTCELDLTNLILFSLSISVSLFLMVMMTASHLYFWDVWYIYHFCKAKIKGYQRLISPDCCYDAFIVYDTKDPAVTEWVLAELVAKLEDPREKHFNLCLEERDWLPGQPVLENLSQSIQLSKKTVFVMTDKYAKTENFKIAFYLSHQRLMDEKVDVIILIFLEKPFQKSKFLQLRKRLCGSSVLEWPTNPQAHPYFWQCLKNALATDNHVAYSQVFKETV
Put plainly: HEK293-Blue-hTLR-7 cells assay (SEAP reporter, R848 stimulation). Format: cell-based. The note with it: HEK293-Blue-hTLR7 cells, R848 ligand, 20 hrs incubation, antagonist. On the procedure:
The following tests were carried out in order to determine the activity of the compounds of formula (I) in HEK293-Blue-hTLR-7/8/9 cells assay.
HEK293-Blue-hTLR-7 Cells Assay:
A stable HEK293-Blue-hTLR-7 cell line was purchased from InvivoGen (Cat. #: hkb-htlr7, San Diego, Calif., USA). These cells were originally designed for studying the stimulation of human TLR7 by monitoring the activation of NF-κB. A SEAP (secreted embryonic alkaline phosphatase) reporter gene was placed under the control of the IFN-β minimal promoter fused to five NF-κB and AP-1-binding sites. The SEAP was induced by activating NF-κB and AP-1 via stimulating HEK-Blue hTLR7 cells with TLR7 ligands. Therefore the reporter expression was declined by TLR7 antagonist under the stimulation of a ligand, such as R848 (Resiquimod), for incubation of 20 hrs. The cell culture supernatant SEAP reporter activity was determined using QUANTI-Blue™ kit (Cat. #: rep-qb1, Invivogen, San Diego, Calif., USA) at a wavelength of 640 nm, a detection medium that turns purple or blue in the presence of alkaline phosphatase.
HEK293-Blue-hTLR7 cells were incubated at a density of 250,000˜450,000 cells/mL in a volume of 170 μL in a 96-well plate in Dulbecco's Modified Eagle's medium (DMEM) containing 4.5 g/L glucose, 50 U/mL penicillin, […], […], 2 mM L-glutamine, 10% (v/v) heat-inactivated fetal bovine serum with addition of 20 μL test compound in a serial dilution in the presence of final DMSO at 1% and 10 μL of 20 uM R848 in above DMEM, perform incubation under 37° C. in a CO2 incubator for 20 hrs. Then 20 μL of the supernatant from each well was incubated with 180 μL Quanti-blue substrate solution at 37° C. for 2 hrs and the absorbance was read at 620˜655 nm using a spectrophotometer. The signalling pathway that TLR7 activation leads to downstream NF-κB activation has been widely accepted, and therefore similar reporter assay was modified for evaluating TLR7 antagonist.

One may read the IC50 as the concentration at which inhibition is half-maximal. The low end stands for inhibition by little substance, the high end for a need for much substance. Molecule `C[C@@H]1CN(c2ccc(C#N)c3ncsc23)C[C@H](CN2[C@@H]3CC[C@H]2C[C@@H](N)C3)O1` [Example 8, Endo-7-[(2S,6R)-2-[[(1R,5S)-3-amino-8-azabicyclo[3.2.1]octan-8-yl]methyl]-6-methyl-morpholin-4-yl]-1,3-benzothiazole-4-carbonitrile] returned an IC50 of 16 nM.

`C[C@@H]1CN(c2ccc(C#N)c3ncsc23)C[C@H](C(=O)NC2CCN(C)CC2)O1` [Example 11, (2R,6R)-4-(4-cyano-1,3-benzothiazol-7-yl)-6-methyl-N-(1-methyl-4-piperidyl)morpholine-2-carboxamide] yielded an IC50 of 5 nM.

As to `C[C@@H]1CN(c2ccc(C#N)c3ncsc23)C[C@H](CN2CCC(N3CCCCC3)CC2)O1` [Example 7, 7-[(2R,6S)-2-methyl-6-[[4-(1-piperidyl)-1-piperidyl]methyl]morpholin-4-yl]-1,3-benzothiazole-4-carbonitrile], it took 13 nM to reach half-maximal inhibition (IC50). This IC50 is about 2.6-fold higher than that of the molecule before.

In the case of `C[C@@H]1CN(c2ccc(C#N)c3ncsc23)C[C@H](CN2CCC(N)CC2)O1` [Example 2, 7-[(2S,6R)-2-[(4-amino-1-piperidyl)methyl]-6-methyl-morpholin-4-yl]-1,3-benzothiazole-4-carbonitrile], the concentration for half-maximal inhibition (IC50) worked out at 26 nM.

In turn, `C[C@@H]1CN(c2ccc(C#N)c3ncsc23)C[C@H](CN2CCC3(CCNC3)CC2)O1` [Example 6, 7-[(2S,6R)-2-(2,8-diazaspiro[4.5]decan-8-ylmethyl)-6-methyl-morpholin-4-yl]-1,3-benzothiazole-4-carbonitrile] came in with an IC50 of 41 nM.

`C[C@@H]1CN(c2ccc(C#N)c3ncsc23)C[C@H](CN2CCC3(CCCNC3)C2)O1` (stereo partly drawn) [Example 1, 7-[(2S,6R)-2-(2,9-diazaspiro[4.5]decan-2-ylmethyl)-6-methyl-morpholin-4-yl]-1,3-benzothiazole-4-carbonitrile] came in with an IC50 of 11 nM. This IC50 lies about 3.7-fold lower than the previous one.

Turning to `C[C@@H]1CN(c2ccc(C#N)c3ncsc23)C[C@H](CN2CCC3(CCNCC3)CC2)O1` [Example 5, 7-[(2S,6R)-2-(3,9-diazaspiro[5.5]undecan-3-ylmethyl)-6-methyl-morpholin-4-yl]-1,3-benzothiazole-4-carbonitrile], the IC50 is 48 nM. Against the preceding molecule, the IC50 is about 4.4-fold higher.

`C[C@@H]1CN(c2ccc(C#N)c3ncsc23)C[C@H](CN2[C@@H]3CC[C@H]2C[C@H](N)C3)O1` [Example 9, Exo-7-[(2S,6R)-2-[[(1S,5R)-3-amino-8-azabicyclo[3.2.1]octan-8-yl]methyl]-6-methyl-morpholin-4-yl]-1,3-benzothiazole-4-carbonitrile] had an IC50 of 45 nM.

`C[C@@H]1CN(c2ccc(C#N)c3ncsc23)C[C@H](C(=O)NCC2CN(C)CCO2)O1` (stereo partly drawn) [Example 12, (2R,6R)-4-(4-cyano-1,3-benzothiazol-7-yl)-6-methyl-N-[(4-methylmorpholin-2-yl)methyl]morpholine-2-carboxamide] gave an IC50 of 4 nM.

`C[C@@H]1CN(c2ccc(C#N)c3ncsc23)C[C@H](CN2CCC3(CCCNC3)CC2)O1` [Example 3, 7-[(2S,6R)-2-(2,9-diazaspiro[5.5]undecan-9-ylmethyl)-6-methyl-morpholin-4-yl]-1,3-benzothiazole-4-carbonitrile]: the IC50 is 19 nM.

The molecule `C[C@@H]1CN(c2ccc(C#N)c3ncsc23)C[C@H](CN2CCC3(CCCN(C)C3)CC2)O1` [Example 10, 7-[(2R,6S)-2-methyl-6-[(2-methyl-2,9-diazaspiro[5.5]undecan-9-yl)methyl]morpholin-4-yl]-1,3-benzothiazole-4-carbonitrile] gave a concentration for half-maximal inhibition (IC50) of 15 nM. This IC50 and that of the molecule before are within 1.5-fold of each other.

Consider `C[C@@H]1CN(c2ccc(C#N)c3ncsc23)C[C@H](CN2CC3(CCCNC3)C2)O1` [Example 4, 7-[(2S,6R)-2-(2,8-diazaspiro[3.5]nonan-2-ylmethyl)-6-methyl-morpholin-4-yl]-1,3-benzothiazole-4-carbonitrile], for which the concentration for half-maximal inhibition (IC50) came to 12 nM.
